Measurements from patent US20230255954A1, “INTERLEUKIN 33 (IL-33) INHIBITION FOR TREATMENT OF CANCER, FIBROSIS AND INFLAMMATION” (The General Hospital Corporation, priority 2020, published 2023).

B1: HA-IL-33 cytokine domain (other, mouse, UniProt Q8BVZ5 109-266, looked up)
chain: SIQGTSLLTQSPASLSTYNDQSVSFVLENGCYVINVDDSGKDQEQDQVLLRYYESPCPASQSGDGVDGKKLMVNMSPIKDTDIWLHANDKDYSVELQRGDVSPPEQAFFVLHKKSSDFVSFECKNLPGTYIGVKDNQLALVEEKDESCNNIMFKLSKI
notes: domain: cytokine domain; Overexpressed in Pam212 cells for 24 hours; localized to the cytoplasm; not shown: HA tag from the pcDNA3.1-HA vector

What was measured:
[1] = test system: mouse Il33 gene promoter (IL-33 promoter-luci reporter); test: IL-33 promoter luciferase screen of FDA-approved Drug Library; assay type: cell-based; details: 10 μM, 24 hours; IL-33 promoter-luci vs control-luci stable Pam212 cells; 1056 molecules tested
Description: Pam212 cells were grown at 37° C. in DMEM (Thermo Fisher Scientific, Waltham, Mass., catalog no. 11995065) supplemented with 10% fetal bovine serum (Thermo Fisher Scientific, catalog no. 26140079), 1× penicillin-streptomycin-glutamine (Thermo Fisher Scientific, catalog no. 10378016), 1×MEM non-essential amino acids solution (Thermo Fisher Scientific, catalog no. 11140050), 1×HEPES (Thermo Fisher Scientific, catalog no. 15630080) and 0.1% 2-Mercaptoethanol (Thermo Fisher Scientific, catalog no. 21985023). PyMT cell lines (derived from a primary breast tumor of MMTV-PyMrg mouse on a C57BL/6 background) were grown at 37° C. in RPMI Medium 1640 (Thermo Fisher Scientific, catalog no. 11875093) supplemented with 10% fetal bovine serum, 1× penicillin-streptomycin-glutamine and 0.1% 2-Mercaptoethanol. IL-33 promoter-luci vector (GeneCopoeia, Rockville, Md., catalog no. MPRM3494-PG02) or Control-luci vector (deletion form of IL-33 promoter region from IL-33 promoter-luci vector) or Poly (I:C) (Invivogen, San Diego, Calif., catalog no. tlrl-pic) in Pam212 cells were performed using Lipofectamine 2000 (Thermo Fisher Scientific, catalog no. 11668019) according to the manufacturer's instructions.
After transfection of plasmids in Pam212 cells, cells were incubated with 3 μg/ml of puromycin (Invivogen, San Diego, Calif., catalog no. ant-pr-1) for positive transfected cell selection. After following 2 days, medium was changed new puromycin contained medium for further selection. After following 2 days, cells were moved to new plate with puromycin contained medium. Puromycin selection was repeated for five times more.
1000 stable cells were seed to 384 wells (Corning, Glendale, Ariz., catalog no. 3570) and each of plate was incubated 24 hours. Following day, 10 μM of FDA-approved Drug Library compounds (Selleckchem, Houston, Tex., catalog no. L1300) were added to each well. After 24 hours, 5 μL of luciferase buffer from Pierce Gaussia luciferase glow assay kit (Thermo Fisher Scientific, Waltham, Mass., catalog no. 16160) were added each well and incubated for 5 min. Each plate was read and measured with luminescence by EnVision 2014 plate reader (Perkin Elmer, Waltham, Mass., catalog no. 2014 EnVision).
To make small molecule screening platform, we generated both IL-33 promoter-luci and control-luci over-expressed stable epithelial cell line (Pam212) by multiple puromycin selection strategy (FIG. 10A). To find molecules that can inhibit IL-33 expression, we tested 1056 FDA-approved small molecules against our reporter cell line. […] To find bona fide inhibitors of IL-33, we checked RNA level of Il33 by qPCR in cells treated with inducer of IL-33 expression, Poly (I:C). After cells were treated by Poly (I:C), RNA level of Il33 was increased compared to carrier group. However, Il33 RNA level was decreased by pitavastatin and tropisetron in Poly I:C-treated cells (FIGS. 10C and D). […] Finally, endogenous IL-33 protein level was decreased after treatment with pitavastatin in a dose-dependent manner (FIG. 10F). Therefore, pitavastatin is a small inhibitor molecule of IL-33.

[2] = test system: Il33 expression induced by Poly (I:C) in Pam212 cells; test: Il33 RNA by qPCR in Poly (I:C)-treated Pam212 cells; assay type: cell-based, mouse
Description: (§1) Pam212 cells were grown at 37° C. in DMEM (Thermo Fisher Scientific, Waltham, Mass., catalog no. 11995065) supplemented with 10% fetal bovine serum (Thermo Fisher Scientific, catalog no. 26140079), 1× penicillin-streptomycin-glutamine (Thermo Fisher Scientific, catalog no. 10378016), 1×MEM non-essential amino acids solution (Thermo Fisher Scientific, catalog no. 11140050), 1×HEPES (Thermo Fisher Scientific, catalog no. 15630080) and 0.1% 2-Mercaptoethanol (Thermo Fisher Scientific, catalog no. 21985023). […]
(§2) Mouse dorsal skin samples were homogenized and lysed in RLT lysis solution (QIAGEN, catalog no. 79216)/0.1% MeOH using Mini-BeadBeater-8 (BioSpec Products, Inc., Bartlesville, Okla.). Total RNA was extracted using an RNeasy micro kit and quantified using NanoDrop ND-1100 (NanoDrop Technologies, Wilmington, Del.). cDNA samples were synthesized from 1 μg of total RNA using Invitrogen SuperScripts III Reverse Transcriptase (Thermo Fisher Scientific, catalog no. 18080085). Expression levels of all cDNA samples were determined with LightCycler 480 system (Roche Molecular Systems Inc., Pleasanton, Calif.) using TaqMan Universal Master Mix II (Thermo Fisher Scientific, catalog no. 44-400-40). […]

[3] = test system: endogenous Il33 expression in PyMT breast cancer cell line; test: Endogenous Il33 RNA in PyMT breast cancer cell line; assay type: cell-based, mouse
Description: as §1, §2

[4] = molecular target: T1, RUNX2 transcription factor (mouse, UniProt Q08775 1-607, limits assumed); test: immunoprecipitation with anti-IL-33 antibody from transfected Pam212 lysate, immunoblot for RUNX2
T1 construct: Detected by immunoblot (anti-RUNX2 clone D1L7F) after immunoprecipitation of IL-33; The species follows from the mouse cell lines; also called endogenous RUNX2
Description: (G) Immunoblot for interaction between nuclear IL-33 and RUNX2. After Pam212 cells were transfected with IL-33 full length or cytokine domain for 24 hours, cell lysates were subjected to immunoprecipitation with anti-IL-33 antibody followed by immunoblot analysis.
Cell lysates were prepared in buffer-A consisting of 50 mM Tris-HCL (pH 8.0), 150 mM NaCl, 0.5% NP-40 and 1× protease inhibitor cocktail. After confirming the concentration of total proteins, the cell lysates were incubated with IL-33 (Nessy-1) overnight at 4° C. and incubated with 30 μL of 50% slurry of protein A-conjugated Sepharose (Cell Signaling Technology, Danvers, Mass., catalog no. 9863S) for the next 2 hours. The samples were precipitated, washed three times with buffer-A containing 300 mM NaCl. Samples were added to 25 μL SDS sampling buffer (Boston Bioproducts, catalog no. BP-111R) and boiled at 95° C. for 10 min. Samples were subjected to SDS-polyacrylamide gel electrophoresis followed by immunoblot analysis.

T1 sequence (Q08775 whole entry): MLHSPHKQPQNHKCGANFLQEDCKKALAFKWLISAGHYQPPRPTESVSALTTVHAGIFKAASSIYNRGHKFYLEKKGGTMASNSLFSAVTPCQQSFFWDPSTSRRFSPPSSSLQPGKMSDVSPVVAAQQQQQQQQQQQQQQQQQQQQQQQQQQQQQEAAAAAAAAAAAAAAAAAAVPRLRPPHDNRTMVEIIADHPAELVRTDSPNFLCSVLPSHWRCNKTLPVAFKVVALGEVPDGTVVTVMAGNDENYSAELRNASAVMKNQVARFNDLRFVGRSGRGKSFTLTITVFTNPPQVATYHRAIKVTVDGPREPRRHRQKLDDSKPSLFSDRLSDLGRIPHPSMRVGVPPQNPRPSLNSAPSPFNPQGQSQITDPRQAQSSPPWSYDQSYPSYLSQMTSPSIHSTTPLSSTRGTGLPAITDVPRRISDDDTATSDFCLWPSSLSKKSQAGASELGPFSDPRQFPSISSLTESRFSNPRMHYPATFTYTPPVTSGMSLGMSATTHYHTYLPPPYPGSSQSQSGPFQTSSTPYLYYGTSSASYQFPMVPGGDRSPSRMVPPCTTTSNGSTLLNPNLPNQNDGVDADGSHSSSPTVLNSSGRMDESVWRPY

Molecule	IL-33/Control luminescence ratio (inhibitory effect against IL-33 reporter) [1]	Il33 RNA level [2]	endogenous Il33 RNA level [3]	binding result [4]
CCCSc1nc(N[C@@H]2C[C@H]2c2ccc(F)c(F)c2)c2nnn([C@@H]3C[C@H](OCCO)[C@@H](O)[C@H]3O)c2n1 [ticagrelor]	small molecule candidates	–	–	–
CC1(C)[C@@H](O[C@H]2O[C@H](C(=O)O)[C@@H](O)[C@H](O)[C@H]2O[C@@H]2O[C@H](C(=O)O)[C@@H](O)[C@H](O)[C@H]2O)CC[C@]2(C)[C@H]3C(=O)C=C4[C@@H]5C[C@@](C)(C(=O)O)CC[C@]5(C)CC[C@@]4(C)[C@]3(C)CC[C@@H]12 [ammonium glycyrrhizinate]	small molecule candidates	–	–	–
CCCCCCCCCCCCCCCC[N+](C)(C)C [cetrimonium bromide]	small molecule candidates	–	–	–
CN1[C@@H]2CC[C@H]1C[C@@H](OC(=O)c1c[nH]c3ccccc13)C2 [tropisetron]	small molecule candidates	decreased	inhibitory effect	–
B1	–	–	–	no binding
